Test results taken from article PMC6493773, “Structure and mechanism of TagA, a novel membrane-associated glycosyltransferase that produces wall teichoic acids in pathogenic bacteria” (PLoS Pathogens, 2019).

Assays:
[1] = molecular target: T1, full-length TagA from S. aureus (Staphylococcus aureus, UniProt Q7A714); assay: anion-exchange HPLC of UDP formation, […] nm; type: biochemical; details: 200 nM enzyme; UDP-ManNAc made in situ from 100 μM UDP-GlcNAc by MnaA; 100 μM lipid-α analog; pH 7.5, 250 mM NaCl, 30°C
T1 construct: gene tarA; full-length; strain and plasmid only in supplement
T1 sequence (Q7A714 whole entry): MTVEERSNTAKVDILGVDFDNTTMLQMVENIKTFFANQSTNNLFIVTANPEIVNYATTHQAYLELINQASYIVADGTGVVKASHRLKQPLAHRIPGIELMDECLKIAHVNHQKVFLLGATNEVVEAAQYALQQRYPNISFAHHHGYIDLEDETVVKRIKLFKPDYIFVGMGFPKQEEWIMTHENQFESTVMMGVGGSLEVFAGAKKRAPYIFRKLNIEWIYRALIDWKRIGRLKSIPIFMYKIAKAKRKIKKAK

[2] = molecular target: T2, full-length TagA from T. italicus (UniProt D3T4E0); assay: anion-exchange HPLC of UDP formation, […] nm; type: biochemical, Thermoanaerobacter thermocopriae; details: 200 nM enzyme; UDP-ManNAc made in situ from 100 μM UDP-GlcNAc by MnaA; 100 μM lipid-α analog; pH 7.5, 250 mM NaCl, 30°C
T2 construct: gene Thit_1850; full-length (195 + 49 C-terminal residues); purification details only in supplement
T2 sequence (D3T4E0 entry or part of it): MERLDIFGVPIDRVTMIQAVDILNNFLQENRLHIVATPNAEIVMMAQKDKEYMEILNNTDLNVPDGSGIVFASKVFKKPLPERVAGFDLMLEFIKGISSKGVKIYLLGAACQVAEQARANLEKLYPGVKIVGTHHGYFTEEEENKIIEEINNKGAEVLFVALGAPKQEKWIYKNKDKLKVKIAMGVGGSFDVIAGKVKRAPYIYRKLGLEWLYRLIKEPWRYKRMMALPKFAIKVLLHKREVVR

Compound	anion-exchange HPLC of UDP formation, 271 nm [1]	anion-exchange HPLC of UDP formation, 271 nm [2]
CC(=O)N[C@@H]1[C@@H](OP(=O)(O)OP(=O)(O)OC[C@H]2O[C@@H](n3ccc(=O)[nH]c3=O)[C@H](O)[C@@H]2O)O[C@H](CO)[C@@H](O)[C@@H]1O [UDP-ManNAc]	full-length TagA enzymes from T. italicus and S. aureus exhibit similar transferase activities in vitro	we reconstituted its GT activity in vitro using UDP-ManNAc and a lipid-α analog
CCCCCCCCCCCCCOP(=O)(O)OP(=O)(O)O[C@H]1O[C@H](CO)[C@@H](O)[C@H](O)[C@H]1NC(C)=O [lipid-α analog]	–	using UDP-ManNAc and a lipid-α analog that replaces its undecaprenyl chain with tridecane
